In patent publication US20250236589A1, “THERAPEUTIC PHENETHYLAMINE COMPOSITIONS AND METHODS OF USE” (Cybin IRL Limited, priority 2022, published 2025):
pEC50, pKi: −log10 of the molar value. Where two headings read alike, the source gives them in different places. Marks after values point to notes of the source that are not given here.

Tests used:
[1] = tested on: bdnf, homer1, Egr2, cFos mRNA (frontal cortex); assay: Brain markers of neuroplasticity, gene expression in frontal cortex; type: in vivo, mouse
Experimental: To evaluate the effects of I-1 on brain markers of neuroplasticity, male C57BL/6J mice were dosed as described in Table 10.
On Day 4, the animals were euthanized 2 hours post-dose. The left frontal cortex was dissected and stored in RNAlater.
Data were log transformed and analyzed by one-way analysis of variance. Each treatment was compared to vehicle by multiple comparisons. […] Moreover, increased homer1 expression, which is associated with the formation of postsynaptic scaffolds that cluster and colocalize NMDAR and mGluR was observed (FIG. 57C); and increased Egr2 expression, a […] that has been proposed to be a marker for psychedelic activation of 5-HT2A receptors (Gonzalez-Maeso et al., Transcriptome fingerprints distinguish hallucinogenic and nonhallucinogenic 5-hydroxytryptamine 2A receptor agonist effects in mouse somatosensory cortex. J Neurosci. 2003; 23(26), 8836-43) was observed (FIG. 57D). Upregulation of bdnf, a neurotrophin that regulates the survival and growth of neurons and influences synaptic efficiency and plasticity, was also observed (FIG. 57A).

human alpha2C receptor = human alpha2C receptor (Homo sapiens (Human), UniProt P18825); assay: alpha2C receptor binding ([3H]rauwolscine)
Experimental: (§1) At 10 μM, I-1 inhibited 97% of radioligand bound to rat alpha2 receptors.

[2] = PK profile in C57BL/6J mice (plasma, brain); type: in vivo, mouse; settings: for Kp / half-life / AUC(0-t) / Cmax / MRT last / Tmax / AUC(0-inf): male, C57BL/6J, mouse; for Kp: brain/plasma, read-out: Brain/Plasma ratio (AUCINF); for AUC(0-inf): read-out: AUCINF—obs
Experimental: PK Profile in Mice. To evaluate the full PK profile for I-1 in mice, plasma and brain samples were determined in male C57BL/6J mice following subcutaneous (s.c.) and oral (p.o.) administration at 3 mg/kg (see Table 7 and FIGS. 54A and 54B). In a typical experiment, blood was collected via cardiac puncture (N=3 animals per time point, 9 time points) up to 24 hours post dose. Plasma and brain concentrations were determined using LC-MS/MS and PK parameters were determined using a non-compartmental analysis (NCA) using Phoenix WinNonlin Pro (v8.3.1, Pharsight, Inc, USA) software.

5-HT1A receptors = 5-HT1A receptors (Homo sapiens (Human), UniProt P08908); assay: 5-HT1A receptor function; type: cell-based
Experimental: I-1 was also a potent 5-HT2 agonist, but at 10 μM, it inhibited >80% radioligand binding to nine other targets (see Table 6). […] I-1 inhibited <90% of radioligand binding to the other seven off-targets.

5-HT2A receptor = 5-HT2A receptor (Homo sapiens (Human), UniProt P28223); assay: 5-HT2A radioligand competition binding ([3H]LSD or [3H]ketanserin)
mice = assay: Head-twitch response (HTR) screening in mice; type: in vivo, mouse
human alpha2B receptor = human alpha2B receptor (Homo sapiens (Human), UniProt P18089); assay: alpha2B receptor binding ([3H]rauwolscine)
Experimental: as §1

[3] = tested on: Calcium Channel L-Type, Phenylalkylamine, verapamil site (rat cortex); assay: Off-target screen, radioligand displacement at 10 μM; type: binding; settings: antagonist radioligand
[4] = 2 h after fourth dose of 0.3 mg/kg s.c. (group C) vs vehicle
[5] = 2 h after single 3 mg/kg s.c. (group B) vs vehicle

Chain of human alpha2C receptor (P18825 whole entry): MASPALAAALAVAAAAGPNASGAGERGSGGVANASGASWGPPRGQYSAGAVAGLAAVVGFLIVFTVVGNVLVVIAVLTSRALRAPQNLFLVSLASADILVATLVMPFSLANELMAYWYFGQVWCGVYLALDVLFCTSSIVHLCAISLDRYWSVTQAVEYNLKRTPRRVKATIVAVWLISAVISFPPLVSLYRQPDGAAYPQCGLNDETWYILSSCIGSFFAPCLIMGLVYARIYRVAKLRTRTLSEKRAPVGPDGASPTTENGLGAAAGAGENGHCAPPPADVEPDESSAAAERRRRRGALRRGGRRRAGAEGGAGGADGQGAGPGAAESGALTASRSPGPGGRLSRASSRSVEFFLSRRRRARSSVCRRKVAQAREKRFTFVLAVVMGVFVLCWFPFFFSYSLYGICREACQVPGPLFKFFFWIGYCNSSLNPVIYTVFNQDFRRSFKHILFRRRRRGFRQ
Chain of human alpha2B receptor (P18089 whole entry): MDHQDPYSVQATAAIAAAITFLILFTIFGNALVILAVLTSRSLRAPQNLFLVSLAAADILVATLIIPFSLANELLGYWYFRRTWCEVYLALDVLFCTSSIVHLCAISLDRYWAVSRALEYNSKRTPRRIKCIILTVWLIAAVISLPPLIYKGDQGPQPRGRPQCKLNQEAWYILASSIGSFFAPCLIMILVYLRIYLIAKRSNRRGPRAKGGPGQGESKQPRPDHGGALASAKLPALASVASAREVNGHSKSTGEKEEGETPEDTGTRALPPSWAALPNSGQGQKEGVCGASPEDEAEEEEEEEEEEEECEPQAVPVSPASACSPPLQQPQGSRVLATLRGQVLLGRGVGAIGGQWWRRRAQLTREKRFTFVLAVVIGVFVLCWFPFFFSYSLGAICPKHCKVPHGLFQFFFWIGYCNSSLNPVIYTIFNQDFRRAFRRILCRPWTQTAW

Structure (SMILES): COc1cc(SC(F)(F)F)c(OC)cc1CCN [Compound I-1, 2-(2,5-dimethoxy-4-((trifluoromethyl)thio)phenyl)ethan-1-amine]
- Egr2 mRNA expression [1, 4]: Increased expression
- homer1 mRNA expression [1, 4]: Increased expression
- Egr2 (krox20) mRNA expression [1, 5]: Increased expression
- bdnf mRNA expression [1, 5]: Increased expression
- cFos mRNA expression [1, 5]: Increased expression
- homer1 mRNA expression [1, 5]: Increased expression
- pKi (human alpha2C receptor): 6.97
- AUCINF ([2]; brain, p.o. 3 mg/kg): 16171 ng·h/g
- T1/2 ([2]; brain, p.o. 3 mg/kg): 2.73 h
- peak brain concentration ([2]; brain, p.o. 3 mg/kg): 2366 ng/g
- AUCINF ([2]; brain, s.c. 3 mg/kg): 22487 ng·h/g
- T1/2 ([2]; brain, s.c. 3 mg/kg): 3.15 h
- peak brain concentration ([2]; brain, s.c. 3 mg/kg): 3165 ng/g
- Kp ([2]; po, p.o. 3 mg/kg): 25.8
- Kp ([2]; sc, s.c. 3 mg/kg): 30.7
- half-life ([2]; plasma and brain, other: subcutaneous and oral (range over both routes), 3 mg/kg, across route of administration and tissue, read-out: elimination T1/2): 2.73 to 3.92 h
- AUC(0-t) ([2]; po, brain, p.o. 3 mg/kg): 16100 ng·h/mL
- Cmax ([2]; po, brain, p.o. 3 mg/kg): 2370 ng/mL
- MRT last ([2]; po, brain, p.o. 3 mg/kg): 5.35 h
- Tmax ([2]; po, brain, p.o. 3 mg/kg): 1 h
- AUC(0-inf) ([2]; po, brain, p.o. 3 mg/kg): 16200 ng·h/mL
- half-life ([2]; po, brain, p.o. 3 mg/kg, read-out: T1/2 (converted)): 2.73 h
- AUC(0-t) ([2]; po, plasma, p.o. 3 mg/kg): 625 ng·h/mL
- Cmax ([2]; po, plasma, p.o. 3 mg/kg): 175 ng/mL
- MRT last ([2]; po, plasma, p.o. 3 mg/kg): 3.01 h
- Tmax ([2]; po, plasma, p.o. 3 mg/kg): 1 h
- AUC(0-inf) ([2]; po, plasma, p.o. 3 mg/kg): 784 ng·h/mL
- half-life ([2]; po, plasma, p.o. 3 mg/kg, read-out: T1/2 (converted)): 3.3 h
- AUC(0-t) ([2]; sc, brain, s.c. 3 mg/kg): 22500 ng·h/mL
- Cmax ([2]; sc, brain, s.c. 3 mg/kg): 3160 ng/mL
- MRT last ([2]; sc, brain, s.c. 3 mg/kg): 4.89 h
- Tmax ([2]; sc, brain, s.c. 3 mg/kg): 2 h
- AUC(0-inf) ([2]; sc, brain, s.c. 3 mg/kg): 22500 ng·h/mL
- half-life ([2]; sc, brain, s.c. 3 mg/kg, read-out: T1/2 (converted)): 3.15 h
- AUC(0-t) ([2]; sc, plasma, s.c. 3 mg/kg): 731 ng·h/mL
- Cmax ([2]; sc, plasma, s.c. 3 mg/kg): 188 ng/mL
- MRT last ([2]; sc, plasma, s.c. 3 mg/kg): 2.96 h
- Tmax ([2]; sc, plasma, s.c. 3 mg/kg): 0.08 h
- AUC(0-inf) ([2]; sc, plasma, s.c. 3 mg/kg): 1000 ng·h/mL
- half-life ([2]; sc, plasma, s.c. 3 mg/kg, read-out: T1/2 (converted)): 3.92 h
- % Frelative po (AUCINF) ([2]; plasma, oral relative to subcutaneous): 78.3%
- T1/2 ([2]; plasma, s.c. 3 mg/kg): 3.92 h
- pEC50 (5-HT1A receptors): 7.06
- pKi (5-HT2A receptor): 7.27
- affinity at 5-HT2A receptors (in words) (5-HT2A receptor): superior affinity
- pKi (5-HT2A receptor; read-out: 5-HT2A, Ki, [3H]ketanserin, high-affinity active state): 8.60
- HTR 15-25 min (mice; calculated using 0-5 min): 27.4 #
- HTR 160-170 min (mice; calculated using 3 min time bin): 30.4 ###
- pKi (human alpha2B receptor): 5.99

Structure (SMILES): COc1cc(CC(C)N)c(OC)cc1I (racemic) [DOI, (±)-2,5-dimethoxy-4-iodoamphetamine, reference compound]
- inhibition at 10 µM [3]: 55.5% inhibition at 10 μM
